# Data from patent US8741944B2, “Anti-infective agents against intracellular pathogens” (priority 2007, dated 2014).
# Legend:
# [1] = system: HT29 (Colon Cancer); assay: NCI DTP tumor cell line screen (SRB), HT29
# Description: (§1) For a typical screening experiment, cells are inoculated into 96 well microtiter plates in 100 μL at plating densities ranging from 5,000 to 40,000 cells/well depending on the doubling time of individual cell lines. After cell inoculation, the microtiter plates are incubated at 37° C., 5% CO2, 95% air and 100% relative humidity for 24 h prior to addition of experimental drugs.
# (§2) After 24 h, two plates of each cell line are fixed in situ with TCA, to represent a measurement of the cell population for each cell line at the time of drug addition (Tz). Experimental drugs are solubilized in dimethyl sulfoxide at 400-fold the desired final maximum test concentration and stored frozen prior to use. At the time of drug addition, an aliquot of frozen concentrate is thawed and diluted to twice the desired final maximum test concentration with complete medium containing 50 μg/ml gentamicin. Additional four, 10-fold or ½ log serial dilutions are made to provide a total of five drug concentrations plus control. Aliquots of 100 μl of these different drug dilutions are added to the appropriate microtiter wells already containing 100 μl of medium, resulting in the required final drug concentrations.
# (§3) Following drug addition, the plates are incubated for an additional 48 h at 37° C., 5% CO2, 95% air, and 100% relative humidity. For adherent cells, the assay is terminated by the addition of cold TCA. Cells are fixed in situ by the gentle addition of 50 μl of cold 50% (w/v) TCA (final concentration, 10% TCA) and incubated for 60 minutes at 4° C. The supernatant is discarded, and the plates are washed five times with tap water and air dried. Sulforhodamine B (SRB) solution (1001) at 0.4% (w/v) in 1% acetic acid is added to each well, and plates are incubated for 10 minutes at room temperature. After staining, unbound dye is removed by washing five times with 1% acetic acid and the plates are air dried. Bound stain is subsequently solubilized with 10 mM trizma base, and the absorbance is read on an automated plate reader at a wavelength of 515 nm. For suspension cells, the methodology is the same except that the assay is terminated by fixing settled cells at the bottom of the wells by gently adding 50 μl of 80% TCA (final concentration, 16% TCA). Using the seven absorbance measurements [time zero, (Tz), control growth, (C), and test growth in the presence of drug at the five concentration levels (Ti)], the percentage growth is calculated at each of the drug concentrations levels. Percentage growth inhibition is calculated as: [(Ti−Tz)/(C−Tz)]×100 for concentrations for which Ti>/=Tz [(Ti−Tz)/Tz]×100 for concentrations for which Ti<Tz
# (§4) Three dose response parameters are calculated for each experimental agent. […] The drug concentration resulting in total growth inhibition (TGI) is calculated from Ti=Tz. […] Values are calculated for each of these three parameters if the level of activity is reached; however, if the effect is not reached or is exceeded, the value for that parameter is expressed as greater or less than the maximum or minimum concentration tested.
# [2] = system: EKVX (Non-Small Cell Lung Cancer); assay: NCI DTP tumor cell line screen (SRB), EKVX
# Description: as §1, §2, §3, §4
# [3] = system: CAKI-1 (Renal Cancer); assay: NCI DTP tumor cell line screen (SRB), CAKI-1
# Description: as §1, §2, §3, §4
# [4] = system: ACHN (Renal Cancer); assay: NCI DTP tumor cell line screen (SRB), ACHN
# Description: as §1, §2, §3, §4
# [5] = system: TK-10 (Renal Cancer); assay: NCI DTP tumor cell line screen (SRB), TK-10
# Description: as §1, §2, §3, §4
# [6] = system: T-47D (Breast Cancer); assay: NCI DTP tumor cell line screen (SRB), T-47D
# Description: as §1, §2, §3, §4
# [7] = system: SK-MEL-5 (Melanoma); assay: NCI DTP tumor cell line screen (SRB), SK-MEL-5
# Description: as §1, §2, §3, §4
# [8] = system: MDA-MB-231/ATCC (Breast Cancer); assay: NCI DTP tumor cell line screen (SRB), MDA-MB-231/ATCC
# Description: as §1, §2, §3, §4
# [9] = system: RXF 393 (Renal Cancer); assay: NCI DTP tumor cell line screen (SRB), RXF 393; settings: RXF 393
# Description: as §1, §2, §3, §4
# [10] = system: SK-OV-3 (Ovarian Cancer); assay: NCI DTP tumor cell line screen (SRB), SK-OV-3
# Description: as §1, §2, §3, §4
# [11] = system: UACC-62 (Melanoma); assay: NCI DTP tumor cell line screen (SRB), UACC-62
# Description: as §1, §2, §3, §4
# [12] = system: DU-145 (Prostate Cancer); assay: NCI DTP tumor cell line screen (SRB), DU-145
# Description: as §1, §2, §3, §4
# [13] = system: HCT-116 (Colon Cancer); assay: NCI DTP tumor cell line screen (SRB), HCT-116
# Description: as §1, §2, §3, §4
# [14] = system: OVCAR-5 (Ovarian Cancer); assay: NCI DTP tumor cell line screen (SRB), OVCAR-5
# Description: as §1, §2, §3, §4
# [15] = system: COLO 205 (Colon Cancer); assay: NCI DTP tumor cell line screen (SRB), COLO 205
# Description: as §1, §2, §3, §4
smiles,measurement,setting,value
"NCC(=O)Nc1ccc(-n2nc(C(F)(F)F)cc2-c2ccc3c(ccc4ccccc43)c2)cc1 [Compound 70, 2-Amino-N-{4-[5-(2-phenanthrenyl)-3-(trifluoromethyl)-1H-pyrazol-1-yl]-phenyl}-acetamide]",TGI,[1],2.64E−06
same,Mean Optical Densities,[1]; Log10 Concentration −4.0,0.159
same,Mean Optical Densities,[1]; Log10 Concentration −5.0,0.075
same,Percent Growth,[1]; Log10 Concentration −5.0,−65%
same,Mean Optical Densities,[1]; Log10 Concentration −6.0,0.801
same,Percent Growth,[1]; Log10 Concentration −6.0,47%
same,Mean Optical Densities,[1]; Log10 Concentration −7.0,1.299
same,Percent Growth,[1]; Log10 Concentration −7.0,88%
same,Percent Growth,[1]; Log10 Concentration −8.0,92%
same,TGI,[2],3.25E−06
same,Mean Optical Densities,[2]; Log10 Concentration −4.0,0.193
same,Mean Optical Densities,[2]; Log10 Concentration −5.0,0.156
same,Percent Growth,[2]; Log10 Concentration −5.0,−72%
same,Mean Optical Densities,[2]; Log10 Concentration −6.0,0.786
same,Percent Growth,[2]; Log10 Concentration −6.0,75%
same,Mean Optical Densities,[2]; Log10 Concentration −7.0,0.860
same,Percent Growth,[2]; Log10 Concentration −7.0,100%
same,Mean Optical Densities,[2]; Log10 Concentration −8.0,0.891
same,Percent Growth,[2]; Log10 Concentration −8.0,110%
same,TGI,[3],2.27E−06
same,Mean Optical Densities,[3]; Log10 Concentration −4.0,0.335
same,Mean Optical Densities,[3]; Log10 Concentration −5.0,0.147
same,Percent Growth,[3]; Log10 Concentration −5.0,−75%
same,Mean Optical Densities,[3]; Log10 Concentration −6.0,1.126
same,Percent Growth,[3]; Log10 Concentration −6.0,42%
same,Mean Optical Densities,[3]; Log10 Concentration −7.0,1.802
same,Percent Growth,[3]; Log10 Concentration −7.0,95%
same,Mean Optical Densities,[3]; Log10 Concentration −8.0,1.692
same,Percent Growth,[3]; Log10 Concentration −8.0,87%
same,TGI,[4],3.45E−06
same,Mean Optical Densities,[4]; Log10 Concentration −4.0,0.313
same,Mean Optical Densities,[4]; Log10 Concentration −5.0,0.150
same,Percent Growth,[4]; Log10 Concentration −5.0,−60%
same,Mean Optical Densities,[4]; Log10 Concentration −6.0,0.829
same,Percent Growth,[4]; Log10 Concentration −6.0,70%
same,Mean Optical Densities,[4]; Log10 Concentration −7.0,1.037
same,Percent Growth,[4]; Log10 Concentration −7.0,102%
same,Mean Optical Densities,[4]; Log10 Concentration −8.0,0.985
same,Percent Growth,[4]; Log10 Concentration −8.0,94%
same,TGI,[5],3.10E−06
same,Mean Optical Densities,[5]; Log10 Concentration −4.0,0.200
same,Mean Optical Densities,[5]; Log10 Concentration −5.0,0.138
same,Percent Growth,[5]; Log10 Concentration −5.0,−80%
same,Mean Optical Densities,[5]; Log10 Concentration −6.0,1.304
same,Percent Growth,[5]; Log10 Concentration −6.0,77%
same,Mean Optical Densities,[5]; Log10 Concentration −7.0,1.492
same,Percent Growth,[5]; Log10 Concentration −7.0,100%
same,Mean Optical Densities,[5]; Log10 Concentration −8.0,1.512
same,Percent Growth,[5]; Log10 Concentration −8.0,102%
same,TGI,[6],4.21E−06
same,Mean Optical Densities,[6]; Log10 Concentration −4.0,0.238
same,Mean Optical Densities,[6]; Log10 Concentration −5.0,0.205
same,Percent Growth,[6]; Log10 Concentration −5.0,−52%
same,Mean Optical Densities,[6]; Log10 Concentration −6.0,0.935
same,Percent Growth,[6]; Log10 Concentration −6.0,86%
same,Mean Optical Densities,[6]; Log10 Concentration −7.0,1.071
same,Percent Growth,[6]; Log10 Concentration −7.0,109%
same,Mean Optical Densities,[6]; Log10 Concentration −8.0,0.921
same,Percent Growth,[6]; Log10 Concentration −8.0,84%
same,TGI,[7],3.02E−06
same,Mean Optical Densities,[7]; Log10 Concentration −4.0,0.364
same,Mean Optical Densities,[7]; Log10 Concentration −5.0,0.136
same,Percent Growth,[7]; Log10 Concentration −5.0,−75%
same,Mean Optical Densities,[7]; Log10 Concentration −6.0,1.659
same,Percent Growth,[7]; Log10 Concentration −6.0,69%
same,Mean Optical Densities,[7]; Log10 Concentration −7.0,1.958
same,Percent Growth,[7]; Log10 Concentration −7.0,88%
same,Mean Optical Densities,[7]; Log10 Concentration −8.0,1.995
same,Percent Growth,[7]; Log10 Concentration −8.0,91%
same,TGI,[8],2.77E−06
same,Mean Optical Densities,[8]; Log10 Concentration −4.0,0.306
same,Mean Optical Densities,[8]; Log10 Concentration −5.0,0.173
same,Percent Growth,[8]; Log10 Concentration −5.0,−73%
same,Mean Optical Densities,[8]; Log10 Concentration −6.0,0.843
same,Percent Growth,[8]; Log10 Concentration −6.0,58%
same,Mean Optical Densities,[8]; Log10 Concentration −7.0,0.889
same,Percent Growth,[8]; Log10 Concentration −7.0,71%
same,Mean Optical Densities,[8]; Log10 Concentration −8.0,0.988
same,Percent Growth,[8]; Log10 Concentration −8.0,100%
same,Mean Optical Densities,[9]; Log10 Concentration −4.0,0.441
same,Mean Optical Densities,[9]; Log10 Concentration −5.0,0.177
same,Percent Growth,[9]; Log10 Concentration −5.0,−56%
same,Mean Optical Densities,[9]; Log10 Concentration −6.0,0.628
same,Percent Growth,[9]; Log10 Concentration −6.0,56%
same,Mean Optical Densities,[9]; Log10 Concentration −7.0,0.700
same,Mean Optical Densities,[9]; Log10 Concentration −8.0,0.766
same,TGI,[10],2.96E−06
same,Mean Optical Densities,[10]; Log10 Concentration −4.0,0.302
same,Mean Optical Densities,[10]; Log10 Concentration −5.0,0.083
same,Percent Growth,[10]; Log10 Concentration −5.0,−79%
same,Mean Optical Densities,[10]; Log10 Concentration −6.0,1.262
same,Percent Growth,[10]; Log10 Concentration −6.0,71%
same,Mean Optical Densities,[10]; Log10 Concentration −7.0,1.597
same,Percent Growth,[10]; Log10 Concentration −7.0,98%
same,Mean Optical Densities,[10]; Log10 Concentration −8.0,1.514
same,Percent Growth,[10]; Log10 Concentration −8.0,91%
same,TGI,[11],3.15E−06
same,Mean Optical Densities,[11]; Log10 Concentration −4.0,0.364
same,Mean Optical Densities,[11]; Log10 Concentration −5.0,0.137
same,Percent Growth,[11]; Log10 Concentration −5.0,−80%
same,Mean Optical Densities,[11]; Log10 Concentration −6.0,1.407
same,Percent Growth,[11]; Log10 Concentration −6.0,79%
same,Mean Optical Densities,[11]; Log10 Concentration −7.0,1.546
same,Percent Growth,[11]; Log10 Concentration −7.0,94%
same,Mean Optical Densities,[11]; Log10 Concentration −8.0,1.649
same,Percent Growth,[11]; Log10 Concentration −8.0,105%
same,TGI,[12],3.47E−06
same,Mean Optical Densities,[12]; Log10 Concentration −4.0,0.132
same,Mean Optical Densities,[12]; Log10 Concentration −5.0,0.078
same,Percent Growth,[12]; Log10 Concentration −5.0,−76%
same,Mean Optical Densities,[12]; Log10 Concentration −6.0,0.895
same,Percent Growth,[12]; Log10 Concentration −6.0,90%
same,Mean Optical Densities,[12]; Log10 Concentration −7.0,1.018
same,Percent Growth,[12]; Log10 Concentration −7.0,109%
same,Mean Optical Densities,[12]; Log10 Concentration −8.0,0.993
same,Percent Growth,[12]; Log10 Concentration −8.0,105%
same,Mean Optical Densities,[13]; Log10 Concentration −4.0,0.146
same,Mean Optical Densities,[13]; Log10 Concentration −5.0,0.104
same,Percent Growth,[13]; Log10 Concentration −5.0,−9%
same,Mean Optical Densities,[13]; Log10 Concentration −6.0,0.452
same,Percent Growth,[13]; Log10 Concentration −6.0,57%
same,Mean Optical Densities,[13]; Log10 Concentration −7.0,0.665
same,Percent Growth,[13]; Log10 Concentration −7.0,93%
same,Mean Optical Densities,[13]; Log10 Concentration −8.0,0.751
same,Percent Growth,[13]; Log10 Concentration −8.0,107%
same,TGI,[14],3.32E−06
same,Mean Optical Densities,[14]; Log10 Concentration −4.0,0.149
same,Mean Optical Densities,[14]; Log10 Concentration −5.0,0.087
same,Percent Growth,[14]; Log10 Concentration −5.0,−83%
same,Mean Optical Densities,[14]; Log10 Concentration −6.0,1.412
same,Percent Growth,[14]; Log10 Concentration −6.0,90%
same,Mean Optical Densities,[14]; Log10 Concentration −7.0,1.540
same,Percent Growth,[14]; Log10 Concentration −7.0,103%
same,Mean Optical Densities,[14]; Log10 Concentration −8.0,1.480
same,Percent Growth,[14]; Log10 Concentration −8.0,97%
same,Mean Optical Densities,[15]; Log10 Concentration −4.0,0.239
same,Mean Optical Densities,[15]; Log10 Concentration −5.0,0.104
same,Percent Growth,[15]; Log10 Concentration −5.0,−53%
same,Mean Optical Densities,[15]; Log10 Concentration −6.0,0.916
same,Percent Growth,[15]; Log10 Concentration −6.0,58%
same,Mean Optical Densities,[15]; Log10 Concentration −7.0,1.252
same,Percent Growth,[15]; Log10 Concentration −7.0,87%
same,Mean Optical Densities,[15]; Log10 Concentration −8.0,1.286
same,Percent Growth,[15]; Log10 Concentration −8.0,89%
